Measured values reported in patent US10227357B2, “Compounds and methods for kinase modulation, and indications therefor” (Plexxikon Inc., priority 2012, dated 2019).
Like-named read-outs stand apart in the source and are kept apart here.

Assays:
c-kit mutant D816V = molecular target: T1, c-kit mutant D816V (Homo sapiens, UniProt P10721, D816V/DEL694-753); assay: c-Kit mutant D816V biochemical assay, AlphaScreen
T1 construct: residues 551-934, kinase insertion domain residues 694-753 deleted; 6x-histidine (N); made in house; host or cells: E. coli Arctic Express (DE3) RIL (Stratagene)
T1 sequence (P10721 with tags, fused parts or gaps DEL694-753/D816V): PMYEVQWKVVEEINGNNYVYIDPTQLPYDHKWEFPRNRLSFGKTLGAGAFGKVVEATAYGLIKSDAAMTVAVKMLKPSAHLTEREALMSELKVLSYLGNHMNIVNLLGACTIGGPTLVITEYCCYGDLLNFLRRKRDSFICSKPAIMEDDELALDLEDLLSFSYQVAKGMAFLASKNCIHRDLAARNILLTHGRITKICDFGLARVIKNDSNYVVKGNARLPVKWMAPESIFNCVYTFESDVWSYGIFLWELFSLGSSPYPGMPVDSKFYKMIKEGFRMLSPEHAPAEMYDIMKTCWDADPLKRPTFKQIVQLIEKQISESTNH
Outline: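 Eight-point, threefold compound series incubated 30 min at room temperature with E. coli-produced D816V kinase, 10 μM ATP, Mg2+/Mn2+ HEPES buffer pH 7.2 and 5% DMSO. After EDTA stop, streptavidin and anti-phosphotyrosine (PY20) AlphaScreen beads gave the read-out, and IC50 was fitted from the concentration–signal curve.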

c-kit kinase = molecular target: T2, c-kit kinase (Homo sapiens, UniProt P10721); assay: c-Kit biochemical assay, AlphaScreen, 10 μM ATP
T2 construct: The c-kit (or kinase domain thereof) is an active kinase in AlphaScreen; poly-Histidine tag (in-house protein only) (cleaved yes); host or cells: E. coli BL21(DE3)RIL, co-expressed with PTP1B
T2 sequence (P10721 26-976): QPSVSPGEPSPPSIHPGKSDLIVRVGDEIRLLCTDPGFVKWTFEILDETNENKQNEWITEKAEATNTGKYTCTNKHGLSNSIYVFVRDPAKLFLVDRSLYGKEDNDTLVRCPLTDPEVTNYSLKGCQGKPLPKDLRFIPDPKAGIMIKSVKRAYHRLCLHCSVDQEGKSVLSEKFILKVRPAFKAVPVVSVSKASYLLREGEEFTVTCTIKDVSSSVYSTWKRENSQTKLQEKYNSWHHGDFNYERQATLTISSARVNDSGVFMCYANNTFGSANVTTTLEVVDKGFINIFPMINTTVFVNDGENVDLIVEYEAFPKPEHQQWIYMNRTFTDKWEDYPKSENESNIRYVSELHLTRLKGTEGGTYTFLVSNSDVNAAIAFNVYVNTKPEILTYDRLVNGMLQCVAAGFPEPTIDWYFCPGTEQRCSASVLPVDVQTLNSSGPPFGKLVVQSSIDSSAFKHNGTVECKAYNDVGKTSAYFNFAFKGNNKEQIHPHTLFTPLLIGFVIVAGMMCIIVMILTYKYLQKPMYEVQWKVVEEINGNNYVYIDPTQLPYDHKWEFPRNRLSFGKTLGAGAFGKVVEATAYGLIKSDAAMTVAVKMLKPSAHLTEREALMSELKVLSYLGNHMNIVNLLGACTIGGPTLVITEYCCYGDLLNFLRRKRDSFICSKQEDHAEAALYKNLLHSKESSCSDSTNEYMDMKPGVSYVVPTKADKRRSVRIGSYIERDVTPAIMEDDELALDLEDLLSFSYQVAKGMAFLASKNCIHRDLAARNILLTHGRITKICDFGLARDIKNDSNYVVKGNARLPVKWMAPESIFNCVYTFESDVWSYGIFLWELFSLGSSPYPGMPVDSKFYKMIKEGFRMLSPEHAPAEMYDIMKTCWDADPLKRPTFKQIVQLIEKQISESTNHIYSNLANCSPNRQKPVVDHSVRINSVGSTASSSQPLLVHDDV
Outline: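 His-tagged c-Kit expressed in E. coli with co-expressed PTP1B (dephosphorylated), tag removed; 0.1 ng per reaction with biotinylated-peptide substrate in 50 mM HEPES pH 7.2, 5 mM MgCl2, 5 mM MnCl2, 5% DMSO, 10 μM ATP, 1 h at room temperature. Phosphorylation detected by AlphaScreen (streptavidin donor, PY20 acceptor beads); IC50 from 8-point 1:3 dilution series.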

[1] = c-kit D816V biochemical inhibitory activity, read-out: Biochemical activity (IC50 μM) Kit D816V
[2] = c-kit biochemical inhibitory activity, read-out: Biochemical activity (IC50 μM) Kit

Row | SMILES | IC50 (c-kit mutant D816V; [1]) [µM] | IC50 (c-kit kinase; [2]) [µM] | IC50 (c-kit mutant D816V; Biochemical activity (IC50 μM) Kit D816V) [µM] | IC50 (c-kit kinase) [µM]
1 | Cc1cccc(S(=O)(=O)Nc2ccc(-c3ncnc4[nH]c(C)cc34)cc2)c1 [P-0283, 3-methyl-N-[4-(6-methyl-7H-pyrrolo[2,3-d]pyrimidin-4-yl)phenyl]benzenesulfonamide] | 1 to 10 | 10 to 200 |  | 
2 | Cc1cc2c(-c3ccc(NS(=O)(=O)c4cccc(OC(F)(F)F)c4)cc3)ncnc2[nH]1 [P-0284, N-[4-(6-methyl-7H-pyrrolo[2,3-d]pyrimidin-4-yl)phenyl]-3-(trifluoromethoxy)benzenesulfonamide] | 1 to 10 | 10 to 200 |  | 
3 | Cn1cc(-c2cc3c(C4=CCC(NS(=O)(=O)c5ccc(OC(F)(F)F)cc5)CC4)ncnc3[nH]2)cn1 (stereo not shown) [P-0285, N-[4-[6-(1-methylpyrazol-4-yl)-7H-pyrrolo[2,3-d]pyrimidin-4-yl]cyclohex-3-en-1-yl]-4-(trifluoromethoxy)benzenesulfonamide] | 0.0001 to 1 | 1 to 10 |  | 
4 | Cc1ccc(S(=O)(=O)Nc2ccc(-c3ncnc4[nH]c(C)cc34)c(F)c2)cn1 [P-0286, N-[3-fluoro-4-(6-methyl-7H-pyrrolo[2,3-d]pyrimidin-4-yl)phenyl]-6-methyl-pyridine-3-sulfonamide] | 0.0001 to 1 | 1 to 10 |  | 
5 | CCCCc1ccc(S(=O)(=O)Nc2ccc(-c3ncnc4[nH]c(C)cc34)cc2)cc1 [P-0287, 4-butyl-N-[4-(6-methyl-7H-pyrrolo[2,3-d]pyrimidin-4-yl)phenyl]benzenesulfonamide] | 1 to 10 | 10 to 200 |  | 
6 | CCCCS(=O)(=O)Nc1ccc(-c2ncnc3[nH]c(C)cc23)cc1 [P-0288, N-[4-(6-methyl-7H-pyrrolo[2,3-d]pyrimidin-4-yl)phenyl]butane-1-sulfonamide] |  |  | 1 to 10 | 10 to 200
7 | CCCS(=O)(=O)Nc1ccc(-c2ncnc3[nH]c(C)cc23)cc1 [P-0289, N-[4-(6-methyl-7H-pyrrolo[2,3-d]pyrimidin-4-yl)phenyl]propane-1-sulfonamide] | 0.0001 to 1 | 10 to 200 |  | 
8 | O=S(=O)(Nc1ccc(-c2ncnc3[nH]c(C4CCCC4)cc23)cc1)c1ccc(F)cc1 [P-0290, N-[4-(6-cyclopentyl-7H-pyrrolo[2,3-d]pyrimidin-4-yl)phenyl]-4-fluoro-benzenesulfonamide] | 0.0001 to 1 | 1 to 10 |  | 
9 | Cc1cc2c(-c3ccc(NS(=O)(=O)c4ccc(C)s4)cc3F)ncnc2[nH]1 [P-0291, N-[3-fluoro-4-(6-methyl-7H-pyrrolo[2,3-d]pyrimidin-4-yl)phenyl]-5-methyl-thiophene-2-sulfonamide] | 0.0001 to 1 | 1 to 10 |  | 
10 | CCc1ccc(S(=O)(=O)Nc2ccc(-c3ncnc4[nH]c(C)cc34)c(F)c2)cc1 [P-0292, 4-ethyl-N-[3-fluoro-4-(6-methyl-7H-pyrrolo[2,3-d]pyrimidin-4-yl)phenyl]benzenesulfonamide] | 0.0001 to 1 | 1 to 10 |  | 
11 | Cc1ccc(S(=O)(=O)Nc2ccc(-c3ncnc4[nH]c(C)cc34)c(F)c2)cc1 [P-0293, N-[3-fluoro-4-(6-methyl-7H-pyrrolo[2,3-d]pyrimidin-4-yl)phenyl]-4-methyl-benzenesulfonamide] | 0.0001 to 1 | 1 to 10 |  | 
12 | Cc1cc2c(-c3ccc(NS(=O)(=O)c4ccc5c(c4)OCO5)cc3)ncnc2[nH]1 [P-0294, N-[4-(6-methyl-7H-pyrrolo[2,3-d]pyrimidin-4-yl)phenyl]-1,3-benzodioxole-5-sulfonamide] | 0.0001 to 1 | 10 to 200 |  | 
13 | CC1(C)C=C(c2cc3c(-c4ccc(NS(=O)(=O)c5ccc(F)cc5)cc4)ncnc3[nH]2)CC(C)(C)N1 [P-0295, 4-fluoro-N-[4-[6-(2,2,6,6-tetramethyl-1,3-dihydropyridin-4-yl)-7H-pyrrolo[2,3-d]pyrimidin-4-yl]phenyl]benzenesulfonamide] | 0.0001 to 1 | 1 to 10 |  | 
14 | O=S(=O)(Nc1ccc(-c2ncnc3[nH]c(C4=CCCC4)cc23)cc1)c1ccc(F)cc1 [P-0296, N-[4-[6-(cyclopenten-1-yl)-7H-pyrrolo[2,3-d]pyrimidin-4-yl]phenyl]-4-fluoro-benzenesulfonamide] | 0.0001 to 1 | 1 to 10 |  | 
15 | Cc1cc2c(-c3ccc(NS(=O)(=O)c4ccc(C(F)(F)F)nc4)cc3)ncnc2[nH]1 [P-0297, N-[4-(6-methyl-7H-pyrrolo[2,3-d]pyrimidin-4-yl)phenyl]-6-(trifluoromethyl)pyridine-3-sulfonamide] | 1 to 10 | 10 to 200 |  | 
16 | CC1(C)C=C(c2cc3c(-c4ccc(NS(=O)(=O)c5ccc(F)cc5)cc4)ncnc3[nH]2)CC(C)(C)O1 [P-0298, 4-fluoro-N-[4-[6-(2,2,6,6-tetramethyl-3H-pyran-4-yl)-7H-pyrrolo[2,3-d]pyrimidin-4-yl]phenyl]benzenesulfonamide] | 1 to 10 | 10 to 200 |  | 

Row | SMILES | IC50 (c-kit mutant D816V; [1]) [µM] | IC50 (c-kit kinase; [2]) [µM] | IC50 (c-kit mutant D816V; Biochemical activity (IC50 μM) Kit D816V) [µM] | IC50 (c-kit kinase) [µM]
17 | Cc1cc2c(-c3ccc(NS(=O)(=O)c4cc(Cl)c(Cl)s4)cc3)ncnc2[nH]1 [P-0299, 4,5-dichloro-N-[4-(6-methyl-7H-pyrrolo[2,3-d]pyrimidin-4-yl)phenyl]thiophene-2-sulfonamide] | 1 to 10 | 1 to 10 |  | 
18 | Cc1cc2c(-c3ccc(NS(=O)(=O)c4sc(C)nc4C)cc3)ncnc2[nH]1 [P-0300, 2,4-dimethyl-N-[4-(6-methyl-7H-pyrrolo[2,3-d]pyrimidin-4-yl)phenyl]thiazole-5-sulfonamide] | 1 to 10 | 10 to 200 |  | 
19 | Cc1ccc(S(=O)(=O)Nc2ccc(-c3ncnc4[nH]c(C)cc34)cc2)cn1 [P-0301, 6-methyl-N-[4-(6-methyl-7H-pyrrolo[2,3-d]pyrimidin-4-yl)phenyl]pyridine-3-sulfonamide] | 0.0001 to 1 | 1 to 10 |  | 
20 | Cc1cc2c(-c3ccc(NS(=O)(=O)c4ccc5c(c4)CCC5)cc3)ncnc2[nH]1 [P-0302, N-[4-(6-methyl-7H-pyrrolo[2,3-d]pyrimidin-4-yl)phenyl]indane-5-sulfonamide] | 0.0001 to 1 | 10 to 200 |  | 
21 | Cc1cc2c(-c3ccc(NS(=O)(=O)c4ccc5oncc5c4)cc3)ncnc2[nH]1 [P-0303, N-[4-(6-methyl-7H-pyrrolo[2,3-d]pyrimidin-4-yl)phenyl]-1,2-benzoxazole-5-sulfonamide] | 10 to 200 | 10 to 200 |  | 
22 | Cc1cc2c(-c3ccc(NS(=O)(=O)c4cc(Cl)cs4)cc3)ncnc2[nH]1 [P-0304, 4-chloro-N-[4-(6-methyl-7H-pyrrolo[2,3-d]pyrimidin-4-yl)phenyl]thiophene-2-sulfonamide] | 1 to 10 | 0.0001 to 1 |  | 
23 | Cc1csc(S(=O)(=O)Nc2ccc(-c3ncnc4[nH]c(C)cc34)cc2)c1 [P-0305, 4-methyl-N-[4-(6-methyl-7H-pyrrolo[2,3-d]pyrimidin-4-yl)phenyl]thiophene-2-sulfonamide] | 1 to 10 | 0.0001 to 1 |  | 
24 | Cc1cc2c(-c3ccc(NS(=O)(=O)c4ccc5c(c4)CCO5)cc3)ncnc2[nH]1 [P-0307, N-[4-(6-methyl-7H-pyrrolo[2,3-d]pyrimidin-4-yl)phenyl]-2,3-dihydrobenzofuran-5-sulfonamide] | 1 to 10 | 10 to 200 |  | 
25 | Cc1ccc2sc(S(=O)(=O)Nc3ccc(-c4ncnc5[nH]c(C)cc45)cc3)cc2c1 [P-0308, 5-methyl-N-[4-(6-methyl-7H-pyrrolo[2,3-d]pyrimidin-4-yl)phenyl]benzothiophene-2-sulfonamide] | 1 to 10 | 10 to 200 |  | 
26 | Cc1cc2c(-c3ccc(NS(=O)(=O)c4cc5ccccc5s4)cc3)ncnc2[nH]1 [P-0309, N-[4-(6-methyl-7H-pyrrolo[2,3-d]pyrimidin-4-yl)phenyl]benzothiophene-2-sulfonamide] | 1 to 10 | 1 to 10 |  | 
27 | Cc1cc2c(-c3ccc(NS(=O)(=O)c4ccc(OC(C)C)cc4)cc3)ncnc2[nH]1 [P-0311, 4-isopropoxy-N-[4-(6-methyl-7H-pyrrolo[2,3-d]pyrimidin-4-yl)phenyl]benzenesulfonamide] | 10 to 200 | 10 to 200 |  | 
28 | Cc1cc2c(-c3ccc(NS(=O)(=O)c4ccc(C)s4)cc3)ncnc2[nH]1 [P-0313, 5-methyl-N-[4-(6-methyl-7H-pyrrolo[2,3-d]pyrimidin-4-yl)phenyl]thiophene-2-sulfonamide] | 1 to 10 | 1 to 10 |  | 
29 | Cc1cc2c(-c3ccc(NS(=O)(=O)c4ccc(F)c(F)c4)cc3)ncnc2[nH]1 [P-0314, 3,4-difluoro-N-[4-(6-methyl-7H-pyrrolo[2,3-d]pyrimidin-4-yl)phenyl]benzenesulfonamide] | 1 to 10 | 10 to 200 |  | 
30 | CCc1ccc(S(=O)(=O)Nc2ccc(-c3ncnc4[nH]c(C)cc34)cc2)cc1 [P-0315, 4-ethyl-N-[4-(6-methyl-7H-pyrrolo[2,3-d]pyrimidin-4-yl)phenyl]benzenesulfonamide] | 0.0001 to 1 | 1 to 10 |  | 
31 | Cc1cc2c(-c3ccc(NS(=O)(=O)c4ccc(C(F)(F)F)cc4)cc3)ncnc2[nH]1 [P-0317, N-[4-(6-methyl-7H-pyrrolo[2,3-d]pyrimidin-4-yl)phenyl]-4-(trifluoromethyl)benzenesulfonamide] | 0.0001 to 1 | 10 to 200 |  | 
32 | Cc1cc2c(-c3ccc(NS(=O)(=O)c4ccc(Br)cc4)cc3)ncnc2[nH]1 [P-0318, 4-bromo-N-[4-(6-methyl-7H-pyrrolo[2,3-d]pyrimidin-4-yl)phenyl]benzenesulfonamide] | 1 to 10 | 1 to 10 |  | 
